Laboratory results published in ChEMBL document CHEMBL5257035, “Nucleoside Derived Antibiotics to Fight Microbial Drug Resistance: New Utilities for an Established Class of Drugs?” (J Med Chem, 2016).
Values after ≈ are worked out from the molar mass of the structure shown.

What was measured:
[1] = system: Klebsiella pneumoniae; experiment: Antibacterial activity against Klebsiella pneumoniae assessed as bacterial growth inhibition; type: functional
[2] = biological target: Methionine--tRNA ligase (Escherichia coli K-12, UniProt P00959); experiment: Inhibition of Escherichia coli K12 methionyl tRNA synthetase
[3] = Inhibition of Escherichia coli RNA polymerase
[4] = system: Mycolicibacterium smegmatis; experiment: Antimycobacterial activity against Mycobacterium smegmatis assessed as microbial growth inhibition; type: functional
[5] = system: Streptococcus pneumoniae; experiment: Antibacterial activity against Streptococcus pneumoniae B1 assessed as bacterial growth inhibition; type: functional
[6] = Inhibition of Bacterial MraY; design: species or system Bacteria
[7] = system: Mycobacterium tuberculosis; experiment: Antibacterial activity against Mycobacterium tuberculosis ATCC 27294 assessed as reduction in bacterial growth by LORA method; type: functional
[8] = system: Mycolicibacterium smegmatis; experiment: Antimycobacterial activity against Mycobacterium smegmatis SG 125A assessed as inhibition of bacterial growth; type: functional
[9] = system: Bacillus subtilis; experiment: Antibacterial activity against Bacillus subtilis ATCC 6633 assessed as bacterial growth inhibition by agar diffusion method; type: functional
[10] = system: Mycobacterium tuberculosis; experiment: Antimycobacterial activity against Mycobacterium tuberculosis H37Rv assessed as inhibition of bacterial growth; type: functional
[11] = system: Bacillus subtilis; experiment: Antibacterial activity against Bacillus subtilis assessed as bacterial growth inhibition incubated for 24 hrs by micro-broth dilution method; type: functional
[12] = system: Haemophilus influenzae; experiment: Antibacterial activity against Haemophilus influenzae assessed as bacterial growth inhibition incubated for 24 hrs by micro-broth dilution method; type: functional
[13] = system: Staphylococcus aureus; experiment: Antibacterial activity against Staphylococcus aureus ATCC 25923 assessed as bacterial growth inhibition measured after 18 hrs by CLSI protocol based two-fold serial microdilution method; type: functional
[14] = system: Enterococcus faecium; experiment: Antibacterial activity against Enterococcus faecium assessed as bacterial growth inhibition incubated for 24 hrs by micro-broth dilution method; type: functional
[15] = system: Moraxella catarrhalis; experiment: Antibacterial activity against Moraxella catarrhalis assessed as bacterial growth inhibition incubated for 24 hrs by micro-broth dilution method; type: functional
[16] = system: Streptococcus pyogenes; experiment: Antibacterial activity against Streptococcus pyogenes assessed as bacterial growth inhibition incubated for 24 hrs by micro-broth dilution method; type: functional
[17] = system: Staphylococcus epidermidis; experiment: Antibacterial activity against Staphylococcus epidermidis ATCC 12228 assessed as microbial growth inhibition incubated for 24 hrs; type: functional
[18] = system: Streptococcus pneumoniae; experiment: Antibacterial activity against Streptococcus pneumoniae B1 assessed as bacterial growth inhibition incubated for 24 hrs by micro-broth dilution method; type: functional
[19] = system: Klebsiella pneumoniae; experiment: Antibacterial activity against Klebsiella pneumoniae assessed as bacterial growth inhibition incubated for 24 hrs by micro-broth dilution method; type: functional
[20] = system: Enterococcus faecalis; experiment: Antibacterial activity against Enterococcus faecalis assessed as bacterial growth inhibition incubated for 24 hrs by micro-broth dilution method; type: functional
[21] = system: Staphylococcus saprophyticus; experiment: Antibacterial activity against Staphylococcus saprophyticus ATCC 15305 assessed as bacterial growth inhibition after 20 hrs by CLSI based-broth microdilution method; type: functional
[22] = system: Mycobacterium tuberculosis; experiment: Antimycobacterial activity against Mycobacterium tuberculosis H37Rv assessed as reduction in microbial growth after 7 days by alamar blue assay; type: functional, organism-based; conditions: 168 h
[23] = biological target: Hypoxanthine-guanine phosphoribosyltransferase (Homo sapiens, UniProt P00492); experiment: Binding affinity to human HGPRT assessed as inhibition of constant
[24] = system: Mycobacterium tuberculosis; experiment: Antimycobacterial activity against Mycobacterium tuberculosis assessed as reduction in microbial growth; type: functional
[25] = Inhibition of GMP synthase (unknown origin); design: species or system Homo sapiens
[26] = system: Escherichia coli; experiment: Antibacterial activity against Escherichia coli K12 assessed as bacterial growth inhibition measured after 24 hrs by micro broth dilution method; type: functional
[27] = Binding affinity to Escherichia coli methionyl adenylate synthetase
[28] = system: Bacillus cereus; experiment: Antibacterial activity against Bacillus cereus ATCC 11778 assessed as bacterial growth inhibition; type: functional
[29] = system: Bacillus subtilis; experiment: Antibacterial activity against Bacillus subtilis ATCC 6633 assessed as reduction in bacterial cell growth; type: functional
[30] = Toxicity in rat; conditions: in vivo
[31] = Inhibition of Escherichia coli topoisomerase 4
[32] = biological target: Glutamine--tRNA ligase (Escherichia coli (strain K12), UniProt P00962); experiment: Binding affinity to Escherichia coli K12 glutaminyl-tRNA synthetase assessed as inhibition constant
Glutamine--tRNA ligase, sequence (P00962 whole entry): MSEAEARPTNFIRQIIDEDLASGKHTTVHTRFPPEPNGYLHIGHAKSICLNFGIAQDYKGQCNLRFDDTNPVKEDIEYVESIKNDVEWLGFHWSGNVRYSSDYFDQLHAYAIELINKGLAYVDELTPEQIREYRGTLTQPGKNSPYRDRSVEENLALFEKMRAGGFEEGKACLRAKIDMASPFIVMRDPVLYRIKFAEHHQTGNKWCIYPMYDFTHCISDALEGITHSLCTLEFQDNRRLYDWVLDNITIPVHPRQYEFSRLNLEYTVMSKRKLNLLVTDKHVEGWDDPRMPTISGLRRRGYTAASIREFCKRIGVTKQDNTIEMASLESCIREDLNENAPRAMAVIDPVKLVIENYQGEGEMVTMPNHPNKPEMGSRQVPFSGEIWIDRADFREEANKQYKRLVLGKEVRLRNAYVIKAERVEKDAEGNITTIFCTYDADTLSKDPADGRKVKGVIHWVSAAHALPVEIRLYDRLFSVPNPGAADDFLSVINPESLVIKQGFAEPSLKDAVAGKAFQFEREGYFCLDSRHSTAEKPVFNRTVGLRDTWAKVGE

Hypoxanthine-guanine phosphoribosyltransferase, sequence (P00492 whole entry): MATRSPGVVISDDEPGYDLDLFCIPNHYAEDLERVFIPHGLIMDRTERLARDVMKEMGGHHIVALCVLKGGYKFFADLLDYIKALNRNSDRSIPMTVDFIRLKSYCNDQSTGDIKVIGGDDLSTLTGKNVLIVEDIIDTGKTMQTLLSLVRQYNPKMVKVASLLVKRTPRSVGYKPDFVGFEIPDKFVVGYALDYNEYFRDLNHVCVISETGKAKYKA
Methionine--tRNA ligase, sequence (P00959 whole entry): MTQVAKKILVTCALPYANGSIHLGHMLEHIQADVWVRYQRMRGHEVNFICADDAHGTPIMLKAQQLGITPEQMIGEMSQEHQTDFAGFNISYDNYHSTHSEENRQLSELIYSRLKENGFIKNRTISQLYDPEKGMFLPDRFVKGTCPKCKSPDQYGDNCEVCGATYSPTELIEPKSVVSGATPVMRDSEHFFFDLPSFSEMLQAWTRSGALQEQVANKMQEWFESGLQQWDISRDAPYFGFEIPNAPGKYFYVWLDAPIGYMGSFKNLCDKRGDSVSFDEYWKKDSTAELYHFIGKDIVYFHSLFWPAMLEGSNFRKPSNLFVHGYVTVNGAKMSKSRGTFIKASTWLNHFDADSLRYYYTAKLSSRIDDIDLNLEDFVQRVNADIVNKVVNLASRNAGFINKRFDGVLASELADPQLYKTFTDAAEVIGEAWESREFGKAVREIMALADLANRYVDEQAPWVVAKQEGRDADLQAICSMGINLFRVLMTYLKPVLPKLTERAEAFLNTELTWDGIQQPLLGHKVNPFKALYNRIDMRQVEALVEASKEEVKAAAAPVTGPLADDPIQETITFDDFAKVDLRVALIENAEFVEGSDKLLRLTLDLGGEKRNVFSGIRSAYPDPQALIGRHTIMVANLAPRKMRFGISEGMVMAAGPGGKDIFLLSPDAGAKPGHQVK

Cc1cn([C@H]2C[C@H](N=[N+]=[N-])[C@@H](COC(=O)C(=O)N[C@@H](CC(C)C)C(=O)O)O2)c(=O)[nH]c1=O
MIC [1]: 0.125 µg/mL (≈ 0.276 µM)

CCC(C)C(N)C(=O)NS(=O)(=O)OC[C@H]1O[C@@H](n2cnc3c(N)nc(I)nc32)[C@H](O)[C@@H]1O (stereo partly drawn)
IC50 [2]: 14 nM

CO[C@H]1[C@@H](O)[C@H](n2ccc(=O)[nH]c2=O)O[C@@H]1[C@@H](O[C@@H]1OC(C(=O)N[C@H]2CCCCNC2=O)=C[C@@H](O)[C@H]1O)C(N)=O
IC50 [3]: 100 nM
MIC [4]: 3 µg/mL (≈ 5.27 µM)
MIC [5]: 12.5 µg/mL (≈ 21.9 µM)
Ki [6]: 0.01 µg/mL (≈ 0.0176 µM)
MIC [7]: 100 µg/mL (≈ 176 µM)

CCC(C)CCCCCCCC/C=C/C(=O)N[C@H]1[C@H](O[C@@H]2O[C@@H](CO)[C@H](O)[C@H](O)[C@H]2NC(C)=O)O[C@H](C[C@@H](C)[C@H]2O[C@@H](N3CCC(=O)NC3=O)[C@H](O)[C@@H]2O)[C@H](O)[C@@H]1O (stereo partly drawn)
MIC [8]: 3.1 µg/mL (≈ 3.73 µM)
MIC [9]: 0.31 µg/mL (≈ 0.373 µM)
MIC [10]: 10 µg/mL (≈ 12 µM)

CCC(C)C(N)C(=O)NS(=O)(=O)OC[C@H]1O[C@@H](CCn2nnc(-c3ccc(Oc4ccccc4)cc3)n2)[C@H](O)[C@@H]1O (stereo partly drawn)
MIC [11]: 2 µg/mL (≈ 3.39 µM)
MIC [12]: 2 µg/mL (≈ 3.39 µM)
MIC [13]: 2 µg/mL (≈ 3.39 µM)
MIC [14]: 2 µg/mL (≈ 3.39 µM)
MIC [15]: 2 µg/mL (≈ 3.39 µM)
MIC [16]: 2 µg/mL (≈ 3.39 µM)
MIC [17]: 2 µg/mL (≈ 3.39 µM)
MIC [18]: 2 µg/mL (≈ 3.39 µM)
MIC [19]: 2 µg/mL (≈ 3.39 µM)
MIC [20]: 2 µg/mL (≈ 3.39 µM)
MIC [21]: 2 µg/mL (≈ 3.39 µM)

CCOC(=O)[C@H](Cc1ccccc1)NP(=O)(N[C@@H](Cc1ccccc1)C(=O)OCC)OCOCCN
IC50 [22]: 5000 nM
Ki [23]: 690 nM
MIC [24]: 4.5 µM

NC(=O)c1ncn([C@@H]2O[C@H](CO)[C@@H](O)[C@H]2O)c1O [MIZORIBINE]
Ki [25]: 100000 nM

CSCC[C@H](N)C(=O)OC[C@H]1O[C@@H](n2cnc3c(N)ncnc32)[C@H](O)[C@@H]1O
MIC [26]: 0.5 µg/mL (≈ 1.25 µM)
Ki [27]: 10900 nM
MIC [28]: 32 µg/mL (≈ 80.3 µM)

CCC(C)CCCCCCCCCCC(=O)N[C@H]1[C@H](O[C@@H]2O[C@@H](CO)[C@H](O)[C@H](O)[C@H]2NC(C)=O)O[C@H](C[C@@H](C)[C@H]2O[C@@H](n3ccc(=O)[nH]c3=O)[C@H](O)[C@@H]2O)[C@H](O)[C@@H]1O (stereo partly drawn)
MIC [9]: 0.1 µg/mL (≈ 0.12 µM)
MIC [29]: 0.1 µg/mL (≈ 0.12 µM)
LD50 [30]: 0.137 mg/kg

CCC(C)C(N)C(=O)NS(=O)(=O)OC[C@H]1O[C@@H](CCn2nnc(-c3ccccc3)n2)[C@H](O)[C@@H]1O (stereo partly drawn)
Ki [31]: 1.3 µg/mL (≈ 2.61 µM)

NC(=O)CCC(N)COP(=O)(O)OC[C@H]1O[C@@H](n2cnc3c(N)ncnc32)[C@H](O)[C@@H]1O (stereo partly drawn)
Ki [32]: 280 nM
